Measurements: US20060003893A1, “Controlled release fertilizers employing ureaform compounds and processes for making same” (priority 2004, published 2006)

Assay: Controlled Release Soil Test (irrigated soil burial test)
Format: physicochemical
Description: To measure the relative solubilities of the products in soil, an irrigated soil burial test (“Controlled Release Soil Test”) was devised such that granules could be retrieved for measurement of their nitrogen content. The following is a description of the test.
Controlled Release Soil Test
Procedure for Controlled Release Soil Test
• 1. Screen the sample to obtain −6+7 Tyler mesh granules for the test. • 2. Label a freezer container with the test description. • 3. Place the freezer container on the 1200 g balance and tare out. • 4. Place 300 g of potting soil with a 40% moisture content into the container and record the weight. • 5. Over the soil place two (2) pieces of fiberglass mesh with 14 meshes to the inch and 1/16 inch openings. • 6. Tare out the container with the soil and fiberglass mesh screens. • 7. Spread 5 grams of −6+7 Tyler mesh granules over the screen in a single layer and record the weight. • 8. Place a large square of fiberglass mesh over the granules, with a stainless steel screen cut to fit over it, so that the shape of the container has been mirrored. • 9. Once this is shaped, tare out the container and add 150 g of soil and record the weight. • 10. Repeat this process for each sample to be tested (in triplet if possible). • 11. After all containers are completed, fill a mist spray bottle with de-ionized water and prime. • 12. […]

Q: Which results are given for NC(N)=O [UREA, urea]?
A: time to go into solution: ≤ 9 h; Nitrogen Retained (%) 9 Hours (9 hours): 0%
